The values below are quoted from earlier work in US20010000177A1, “Novel class of thiomorpholino substituted thiazoles” (priority 1999, published 2001).

For orientation: MIC50 means an inhibitory concentration at the 50% level, which refers to growth in some studies and to a panel of isolates in others.

The data set concerns Candida albican. The conditions noted are these: Antimicrob. Agents Chemother., (1980), 18(2), 231-9; cited from earlier work.

Some results are limits rather than exact numbers.

Regarding `N=C(N)c1ccc(-c2nnc(-c3ccc(C(=N)N)cc3)o2)cc1`, the MIC50 is > 60 µg/mL.
